According to ChEMBL document CHEMBL5113449, “Evaluation of aminopyrrolidine amide to improve chloride transport in CFTR-defective cells” (Bioorg Med Chem Lett, 2022):
The source made the active and inactive calls. The calls are words filed in the database; no cut-off is given here.

What was measured:
[1] = Cytotoxicity against human CFBE41o- cells expressing CFTR P.Phe508del mutant at 10 uM incubated for 48 hrs by MTT assay; type: toxicity, cell-based
[2] = Restoration of CFTR chloride channel activity in human CFBE41o- cells expressing CFTR P.Phe508del mutant assessed as increase in channel function by measuring Cl- current at 10 uM at -80 mV holding potential incubated for 48 hrs by whole cell patch clamp assay (reference value: 32.98 +/- 14.71 pA/pF); type: functional
CFBE41o- [3] = experiment: Induction of UPR in human CFBE41o- cells expressing CFTR P.Phe508del mutant assessed as upregulation of PERK mRNA expression by RT-PCR analysis; type: functional, cell-based
CFBE41o- [4] = experiment: Induction of UPR in human CFBE41o- cells expressing CFTR P.Phe508del mutant assessed as upregulation of XBP1 mRNA expression by RT-PCR analysis; type: functional, cell-based
CFBE41o- [5] = experiment: Restoration of CFTR chloride channel activity in human CFBE41o- cells expressing CFTR P.Phe508del mutant assessed as increase in transcription of CFTR P.Phe508del mutant mRNA expression by RT-qPCR analysis; type: functional, cell-based
CFBE41o- [6] = experiment: Upregulation of BiP protein expression in human CFBE41o- cells expressing CFTR P.Phe508del mutant by Western blot analysis; type: functional, cell-based
CFBE41o- [7] = experiment: Upregulation of ATF6 protein expression in human CFBE41o- cells expressing CFTR P.Phe508del mutant by Western blot analysis; type: functional, cell-based
CFBE41o- [8] = experiment: Upregulation of cleaved form of ATF6 protein expression in human CFBE41o- cells expressing CFTR P.Phe508del mutant by Western blot analysis; type: functional, cell-based
BHK = experiment: Restoration of CFTR chloride channel activity in […] BHK cells expressing 3HA-epitope tagged CFTR P.Phe508del mutant assessed as increase in exportation of mutant CFTR to membrane by measuring mature CFTR by immunoblot analysis; type: functional, cell-based
CFBE41o- [9] = experiment: Induction of UPR in human CFBE41o- cells expressing CFTR P.Phe508del mutant assessed as upregulation of IRE1 mRNA expression by RT-PCR analysis; type: functional, cell-based

**Q.** Which Activity [1] does the source give for `CCN(CC)Cc1ccc(C(=O)N(CCc2ccccc2OC)[C@@H]2CCNC2)cc1` here?
**A.** Non-Toxic

**Q.** And the Activity [2]?
**A.** 82.67 pA/pF

**Q.** What about the Activity (CFBE41o- [3]) of the same molecule?
**A.** Active

**Q.** What about the Activity (CFBE41o- [4]) of the same molecule?
**A.** Active

**Q.** What about the Activity (CFBE41o- [5]) of the same molecule?
**A.** Active

**Q.** What about the Activity (CFBE41o- [6]) of the same molecule?
**A.** Active

**Q.** What about the Activity (CFBE41o- [7]) of the same molecule?
**A.** Active

**Q.** And the Activity (CFBE41o- [8])?
**A.** Active

**Q.** What about the Activity (BHK) of the same molecule?
**A.** Active

**Q.** And the Activity (CFBE41o- [9])?
**A.** Active
